Consider 23 compounds from patent US10745382B2 (BRISTOL-MYERS SQUIBB COMPANY, priority 2015, dated 2020).

A word on the IC50: it is the concentration that gives 50% inhibition.

The target of one test is T1, PD-1/PD-L1 (Homo sapiens, UniProt Q9NZQ7).
T1 construct: made in house; host or cells: HEK293T
T1 sequence (Q9NZQ7 with tags, fused parts or gaps): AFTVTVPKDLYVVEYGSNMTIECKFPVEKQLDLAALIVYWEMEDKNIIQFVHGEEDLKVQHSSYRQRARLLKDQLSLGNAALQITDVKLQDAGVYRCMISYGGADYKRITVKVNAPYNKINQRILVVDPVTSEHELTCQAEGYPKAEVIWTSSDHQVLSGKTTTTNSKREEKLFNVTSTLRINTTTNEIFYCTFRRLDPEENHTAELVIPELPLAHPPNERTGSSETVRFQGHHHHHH
Put plainly: PD-1/PD-L1 Homogenous Time-Resolved Fluorescence (HTRF) binding assay. As to conditions: PD-L1-His 10 nM, PD-1-Ig 20 nM; numeric IC50; read-out: Range or IC50. In a few lines: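 Compounds are tested for blocking the PD-1/PD-L1 interaction in dPBS supplemented with 0.1% BSA and 0.05% (v/v) Tween-20. Tagged proteins are detected with Eu-cryptate anti-Ig and APC anti-His at 1 and 20 nM final.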
(In TR-FRET formats the signal depends on donor and acceptor labels being close together.)
In the case of `CNC(=O)c1cccc(-c2cccc(COc3cc(OCc4cc(F)cc(F)c4)c(CN4CCC[C@H]4C(=O)O)cc3Cl)c2C)c1C` [Example 4024, (5-chloro-2-((3,5-difluorobenzyl)oxy)-4-((2,2′-dimethyl-3′-(methylcarbamoyl)-[1,1′-biphenyl]-3-yl)methoxy)benzyl)-L-proline], the IC50 turned out to be 87 nM.
Consider `CCN(CC)C(=O)c1cccc(-c2cccc(COc3cc(OCc4cncc(C#N)c4)c(CN4CCCC[C@H]4C(=O)O)cc3Cl)c2C)c1C` [Example 4040, (S)-1-(5-chloro-2-((5-cyanopyridin-3-yl)methoxy)-4-((3′-(diethylcarbamoyl)-2,2′-dimethyl-[1,1′-biphenyl]-3-yl)methoxy)benzyl)piperidine-2-carboxylic Acid], for which the IC50 was found to be 92 nM.

The test is the same for the next values; noted with them: PD-L1-His 10 nM, PD-1-Ig 20 nM; value given as range class; read-out: Range or IC50.
Turning to `CCNC(=O)c1cccc(-c2cccc(COc3cc(OCc4cc(F)cc(F)c4)c(CNC(C)(CO)CO)cc3Cl)c2C)c1C` [Example 4022, 3′-((2-chloro-5-((3,5-difluorobenzyl)oxy)-4-(((1,3-dihydroxy-2-methylpropan-2-yl)amino)methyl)phenoxy)methyl)-N-ethyl-2,2′-dimethyl-[1,1′-biphenyl]-3-carboxamide], the IC50 was 100 to 2000 nM.
Same read-out and setting: then `CNC(=O)c1cccc(-c2cccc(COc3cc(OCc4cc(F)cc(F)c4)c(CN4CCCC[C@H]4C(=O)O)cc3Cl)c2C)c1C` [Example 4023, (S)-1-(5-chloro-2-((3,5-difluorobenzyl)oxy)-4-((2,2′-dimethyl-3′-(methylcarbamoyl)-[1,1′-biphenyl]-3-yl)methoxy)benzyl)piperidine-2-carboxylic Acid], with 100 to 2000 nM.
On the same count and under the same terms, then `CNC(=O)c1cccc(-c2cccc(COc3cc(OCc4cc(F)cc(F)c4)c(CN4C[C@H](O)C[C@H]4C(=O)O)cc3Cl)c2C)c1C` [Example 4025, (2S,4R)-1-(5-chloro-2-((3,5-difluorobenzyl)oxy)-4-((2,2′-dimethyl-3′-(methylcarbamoyl)-[1,1′-biphenyl]-3-yl)methoxy)benzyl)-4-hydroxypyrrolidine-2-carboxylic Acid], with 100 to 2000 nM; and `CNC(=O)c1cccc(-c2cccc(COc3cc(OCc4cc(F)cc(F)c4)c(CN4C[C@@H](O)C[C@H]4C(=O)O)cc3Cl)c2C)c1C` [Example 4026, (2S,4S)-1-(5-chloro-2-((3,5-difluorobenzyl)oxy)-4-((2,2′-dimethyl-3′-(methylcarbamoyl)-[1,1′-biphenyl]-3-yl)methoxy)benzyl)-4-hydroxypyrrolidine-2-carboxylic Acid], with 100 to 2000 nM; and `CNC(=O)c1cccc(-c2cccc(COc3cc(OCc4cc(F)cc(F)c4)c(CN4CCOC[C@H]4C(=O)O)cc3Cl)c2C)c1C` [Example 4027, (S)-4-(5-chloro-2-((3,5-difluorobenzyl)oxy)-4-((2,2′-dimethyl-3′-(methylcarbamoyl)-[1,1′-biphenyl]-3-yl)methoxy)benzyl)morpholine-3-carboxylic Acid], with 2010 to 10000 nM.
On the same count and under the same terms, then `CNC(=O)c1cccc(-c2cccc(COc3cc(OCc4cc(F)cc(F)c4)c(C=O)cc3Cl)c2C)c1C` [Example 4028, 3′-((2-chloro-5-((3,5-difluorobenzyl)oxy)-4-formylphenoxy)methyl)-N,2,2′-trimethyl-[1,1′-biphenyl]-3-carboxamide], with 100 to 2000 nM; and `CNC(=O)c1cccc(-c2cccc(COc3cc(OCc4cc(F)cc(F)c4)c(CNC(C)(CO)CO)cc3Cl)c2C)c1C` [Example 4029, 3′-((2-chloro-5-((3,5-difluorobenzyl)oxy)-4-(((1,3-dihydroxy-2-methylpropan-2-yl)amino)methyl)phenoxy)methyl)-N,2,2′-trimethyl-[1,1′-biphenyl]-3-carboxamide], with 10 to 100 nM; and `Cc1c(COc2cc(OCc3cncc(C#N)c3)c(CN3CCCC[C@H]3C(=O)O)cc2Cl)cccc1-c1cccc(C(=O)N(C)C)c1C` [Example 4030, (S)-1-(5-chloro-2-((5-cyanopyridin-3-yl)methoxy)-4-((3′-(dimethylcarbamoyl)-2,2′-dimethyl-[1,1′-biphenyl]-3-yl)methoxy)benzyl)piperidine-2-carboxylic Acid], with 100 to 2000 nM.
`Cc1c(COc2cc(OCc3cncc(C#N)c3)c(CN3CCC[C@H]3C(=O)O)cc2Cl)cccc1-c1cccc(C(=O)N(C)C)c1C` [Example 4031, (5-chloro-2-((5-cyanopyridin-3-yl)methoxy)-4-((3′-(dimethylcarbamoyl)-2,2′-dimethyl-[1,1′-biphenyl]-3-yl)methoxy)benzyl)-L-proline]: the IC50 lay in the range of 2010 to 10000 nM.
Turning to `Cc1c(COc2cc(OCc3cncc(C#N)c3)c(CN3C[C@H](O)C[C@H]3C(=O)O)cc2Cl)cccc1-c1cccc(C(=O)N(C)C)c1C` [Example 4032, (2S,4R)-1-(5-chloro-2-((5-cyanopyridin-3-yl)methoxy)-4-((3′-(dimethylcarbamoyl)-2,2′-dimethyl-[1,1′-biphenyl]-3-yl)methoxy)benzyl)-4-hydroxypyrrolidine-2-carboxylic Acid], the IC50 lay in the range of 100 to 2000 nM.
In the case of `Cc1c(COc2cc(OCc3cncc(C#N)c3)c(CN3C[C@@H](O)C[C@H]3C(=O)O)cc2Cl)cccc1-c1cccc(C(=O)N(C)C)c1C` [Example 4033, (2S,4S)-1-(5-chloro-2-((5-cyanopyridin-3-yl)methoxy)-4-((3′-(dimethylcarbamoyl)-2,2′-dimethyl-[1,1′-biphenyl]-3-yl)methoxy)benzyl)-4-hydroxypyrrolidine-2-carboxylic Acid], the IC50 is 100 to 2000 nM.
Consider `Cc1c(COc2cc(OCc3cncc(C#N)c3)c(CNC(CO)CO)cc2Cl)cccc1-c1cccc(C(=O)N(C)C)c1C` [Example 4034, 3′-((2-chloro-5-((5-cyanopyridin-3-yl)methoxy)-4-(((1,3-dihydroxypropan-2-yl)amino)methyl)phenoxy)methyl)-N,N,2,2′-tetramethyl-[1,1′-biphenyl]-3-carboxamide], for which the IC50 lay in the range of 10 to 100 nM.
As for `Cc1c(COc2cc(OCc3cncc(C#N)c3)c(CNC(C)(CO)CO)cc2Cl)cccc1-c1cccc(C(=O)N(C)C)c1C` [Example 4035, 3′-((2-chloro-5-((5-cyanopyridin-3-yl)methoxy)-4-(((1,3-dihydroxy-2-methylpropan-2-yl)amino)methyl)phenoxy)methyl)-N,N,2,2′-tetramethyl-[1,1′-biphenyl]-3-carboxamide], the IC50 was in the range of 10 to 100 nM.
Still for that read-out and setting: in the case of `Cc1c(COc2cc(OCc3cncc(C#N)c3)c(CN3CCOC[C@H]3C(=O)O)cc2Cl)cccc1-c1cccc(C(=O)N(C)C)c1C` [Example 4036, (S)-4-(5-chloro-2-((5-cyanopyridin-3-yl)methoxy)-4-((3′-(dimethylcarbamoyl)-2,2′-dimethyl-[1,1′-biphenyl]-3-yl)methoxy)benzyl)morpholine-3-carboxylic Acid] it was 2010 to 10000 nM; in that of `Cc1c(COc2cc(OCc3cncc(C#N)c3)c(CN3CCCC[C@H]3C(=O)O)cc2Cl)cccc1-c1cccc(C(=O)N2CCCC2)c1C` [Example 4037, (S)-1-(5-chloro-2-((5-cyanopyridin-3-yl)methoxy)-4-((2,2′-dimethyl-3′-(pyrrolidine-1-carbonyl)-[1,1′-biphenyl]-3-yl)methoxy)benzyl)piperidine-2-carboxylic Acid], 100 to 2000 nM.
For the compound `Cc1c(COc2cc(OCc3cncc(C#N)c3)c(CNC(CO)CO)cc2Cl)cccc1-c1cccc(C(=O)N2CCCC2)c1C` [Example 4038, 5-((4-chloro-2-(((1,3-dihydroxypropan-2-yl)amino)methyl)-5-((2,2′-dimethyl-3′-(pyrrolidine-1-carbonyl)-[1,1′-biphenyl]-3-yl)methoxy)phenoxy)methyl)nicotinonitrile], the IC50 lay in the range of 10 to 100 nM.
Same read-out and setting: then `Cc1c(COc2cc(OCc3cncc(C#N)c3)c(CNC(C)(CO)CO)cc2Cl)cccc1-c1cccc(C(=O)N2CCCC2)c1C` [Example 4039, 5-((4-chloro-2-(((1,3-dihydroxy-2-methylpropan-2-yl)amino)methyl)-5-((2,2′-dimethyl-3′-(pyrrolidine-1-carbonyl)-[1,1′-biphenyl]-3-yl)methoxy)phenoxy)methyl)nicotinonitrile], with 10 to 100 nM; and `CCN(CC)C(=O)c1cccc(-c2cccc(COc3cc(OCc4cncc(C#N)c4)c(CN4CCC[C@H]4C(=O)O)cc3Cl)c2C)c1C` [Example 4041, (5-chloro-2-((5-cyanopyridin-3-yl)methoxy)-4-((3′-(diethylcarbamoyl)-2,2′-dimethyl-[1,1′-biphenyl]-3-yl)methoxy)benzyl)-L-proline], with 100 to 2000 nM.
Still for that read-out and setting: in the case of `CCN(CC)C(=O)c1cccc(-c2cccc(COc3cc(OCc4cncc(C#N)c4)c(CN4C[C@H](O)C[C@H]4C(=O)O)cc3Cl)c2C)c1C` [Example 4042, (2S,4R)-1-(5-chloro-2-((5-cyanopyridin-3-yl)methoxy)-4-((3′-(diethylcarbamoyl)-2,2′-dimethyl-[1,1′-biphenyl]-3-yl)methoxy)benzyl)-4-hydroxypyrrolidine-2-carboxylic Acid] it was 100 to 2000 nM; in that of `CCN(CC)C(=O)c1cccc(-c2cccc(COc3cc(OCc4cncc(C#N)c4)c(CN4C[C@@H](O)C[C@H]4C(=O)O)cc3Cl)c2C)c1C` [Example 4043, (2S,4S)-1-(5-chloro-2-((5-cyanopyridin-3-yl)methoxy)-4-((3′-(diethylcarbamoyl)-2,2′-dimethyl-[1,1′-biphenyl]-3-yl)methoxy)benzyl)-4-hydroxypyrrolidine-2-carboxylic Acid], 10 to 100 nM.
The same measure, in the same setting: in the case of `CCN(CC)C(=O)c1cccc(-c2cccc(COc3cc(OCc4cncc(C#N)c4)c(CNC(CO)CO)cc3Cl)c2C)c1C` [Example 4044, 3′-((2-chloro-5-((5-cyanopyridin-3-yl)methoxy)-4-(((1,3-dihydroxypropan-2-yl)amino)methyl)phenoxy)methyl)-N,N-diethyl-2,2′-dimethyl-[1,1′-biphenyl]-3-carboxamide] it was 100 to 2000 nM.
